Measured values as given in ChEMBL document CHEMBL1156829 (Proc Natl Acad Sci U S A, 2008).

Columns and labels:
Plasmodium falciparum [1] = assay: NOVARTIS: Inhibition of Plasmodium falciparum 3D7 (drug-susceptible) proliferation in erythrocyte-based infection assay; format: functional, organism-based; settings: Plasmodium falciparum, 3D7
Plasmodium falciparum [2] = assay: NOVARTIS: Inhibition of Plasmodium falciparum W2 (drug-resistant) proliferation in erythrocyte-based infection assay; format: functional, organism-based; settings: Plasmodium falciparum, W2; read-out: EC50
[3] = NOVARTIS: Cytotoxicity against human hepatocellular carcinoma cell line (Huh7); format: toxicity, cell-based, Huh-7; settings: Huh7 cells (hepatocellular carcinoma cell line)

COC(=O)c1ccc(C2C3=C(CC(c4ccc(OC)cc4)CC3=O)Nc3ccccc3N2C(=O)c2ccccc2)cc1 (configuration not stated)
EC50 (Plasmodium falciparum [1]): 427 nM | EC50 (Plasmodium falciparum [2]): 368 nM | CC50 [3]: > 100000 nM

Cc1cc(N2CCC(C)CC2)nc(-n2nc(C)cc2C)n1
EC50 (Plasmodium falciparum [1]): 1100 nM | EC50 (Plasmodium falciparum [2]): 382 nM | CC50 [3]: > 100000 nM

COc1ccccc1N1CCN(C(=O)CCCCSc2nnc3c4cc(F)ccc4n(Cc4ccc(F)cc4)c3n2)CC1
EC50 (Plasmodium falciparum [1]): 265 nM | EC50 (Plasmodium falciparum [2]): 207 nM | CC50 [3]: > 57700 nM

O=C(NC(c1ccccc1)c1ccc2cccnc2c1O)c1ccccc1 (configuration not stated)
EC50 (Plasmodium falciparum [1]): 533 nM | EC50 (Plasmodium falciparum [2]): 376 nM | CC50 [3]: > 100000 nM

Cc1cc(Nc2ccc(C)c(C)c2)n2nc(C)nc2n1
EC50 (Plasmodium falciparum [1]): 183 nM | EC50 (Plasmodium falciparum [2]): 378 nM | CC50 [3]: > 100000 nM

O=C1CN(C(=O)CCC2CCCC2)C(c2ccc(F)cc2)c2cc(F)ccc2N1 (configuration not stated)
EC50 (Plasmodium falciparum [1]): 666 nM | EC50 (Plasmodium falciparum [2]): 230 nM | CC50 [3]: 60300 nM

O=C(Cc1ccccc1)NC(c1ccccc1)c1ccc2cccnc2c1O (configuration not stated)
EC50 (Plasmodium falciparum [1]): 423 nM | EC50 (Plasmodium falciparum [2]): 382 nM | CC50 [3]: > 100000 nM

CN(C)c1ccc(C=CC(=O)NC(=O)c2ccccc2O)cc1
EC50 (Plasmodium falciparum [1]): 118 nM | EC50 (Plasmodium falciparum [2]): 358 nM | CC50 [3]: > 100000 nM

O=C1CC(c2ccccc2)CC2=C1C(c1ccccc1F)Nc1ccccc1N2 (configuration not stated)
EC50 (Plasmodium falciparum [1]): 462 nM | EC50 (Plasmodium falciparum [2]): 359 nM | CC50 [3]: > 100000 nM

CC(C)(C)CC(C)(C)Nc1c(-c2ccccc2OC(=O)c2ccc([N+](=O)[O-])cc2)nc2ccccn12
EC50 (Plasmodium falciparum [1]): 251 nM | EC50 (Plasmodium falciparum [2]): 5.28 nM | CC50 [3]: 1480 nM

Cc1cc(C(C)(C)C)cc(S(=O)(=O)NCCO)c1C
EC50 (Plasmodium falciparum [1]): > 12500 nM | EC50 (Plasmodium falciparum [2]): 377 nM | CC50 [3]: > 100000 nM

CCN1CCN(Cc2c(O)ccc3c(=O)c(Oc4ccccc4Br)c(C(F)(F)F)oc23)CC1
EC50 (Plasmodium falciparum [1]): 1390 nM | EC50 (Plasmodium falciparum [2]): 377 nM | CC50 [3]: > 100000 nM

CCOc1ccccc1NC(=O)Cn1c(=O)n(Cc2ccccc2)c(=O)c2c(C)c(C(=O)N(C)C)sc21
EC50 (Plasmodium falciparum [1]): 883 nM | EC50 (Plasmodium falciparum [2]): 377 nM | CC50 [3]: > 100000 nM

Cn1c(-c2ccc([N+](=O)[O-])cc2)[n+](C)c2ccccc21
EC50 (Plasmodium falciparum [1]): 1310 nM | EC50 (Plasmodium falciparum [2]): 376 nM | CC50 [3]: > 100000 nM

CC(=O)Nc1ccc(-c2nc3c4ccccc4c4ccc(I)cc4c3[nH]2)cc1
EC50 (Plasmodium falciparum [1]): 296 nM | EC50 (Plasmodium falciparum [2]): 362 nM | CC50 [3]: > 100000 nM

CCOc1ccccc1-n1c(N)c(C(=O)Nc2ccc(C)cc2)sc1=S
EC50 (Plasmodium falciparum [1]): 1320 nM | EC50 (Plasmodium falciparum [2]): 361 nM | CC50 [3]: > 100000 nM

CCOC(=O)c1ccc2c(c1)[C@@H]1C=CC[C@@H]1[C@H](c1ccc(OC)c([N+](=O)[O-])c1)N2
EC50 (Plasmodium falciparum [1]): 390 nM | EC50 (Plasmodium falciparum [2]): 376 nM | CC50 [3]: > 100000 nM

CN(c1ncnc2sc3c(c12)CCCC3)C1CCCCC1
EC50 (Plasmodium falciparum [1]): > 921 nM | EC50 (Plasmodium falciparum [2]): < 37.4 nM | CC50 [3]: > 10000 nM

COc1cc(Cl)c(C)cc1NC(=O)C1c2ccccc2C(=O)N(CC(C)C)C1c1cccs1 (configuration not stated)
EC50 (Plasmodium falciparum [1]): 578 nM | EC50 (Plasmodium falciparum [2]): 373 nM | CC50 [3]: > 100000 nM

CC[n+]1c(C=C2C=C(C)OC(C)=C2)sc2ccccc21
EC50 (Plasmodium falciparum [1]): 147 nM | EC50 (Plasmodium falciparum [2]): 119 nM | CC50 [3]: > 32000 nM

CCC(C)CNC(=O)c1ccc(OC2CCN(CC3CCCCC3)CC2)c(Cl)c1 (configuration not stated)
EC50 (Plasmodium falciparum [1]): 78.2 nM | EC50 (Plasmodium falciparum [2]): 48.4 nM | CC50 [3]: > 13200 nM

O=C1C(NC2CCCC2)=C(N2CCOCC2)C(=O)c2ccccc21
EC50 (Plasmodium falciparum [1]): 119 nM | EC50 (Plasmodium falciparum [2]): 139 nM | CC50 [3]: 37900 nM

OCCCCCCCCCCC[n+]1ccccc1
EC50 (Plasmodium falciparum [1]): 133 nM | EC50 (Plasmodium falciparum [2]): 365 nM | CC50 [3]: > 100000 nM

C[N+]1(CC(=O)NNc2c3ccccc3nc3ccccc23)CCOCC1
EC50 (Plasmodium falciparum [1]): 637 nM | EC50 (Plasmodium falciparum [2]): 364 nM | CC50 [3]: > 100000 nM

CCCCOC(=O)C1=C(C)NC2=C(C(=O)CCC2)C1c1ccc(Cl)c(Cl)c1 (configuration not stated)
EC50 (Plasmodium falciparum [1]): 574 nM | EC50 (Plasmodium falciparum [2]): 359 nM | CC50 [3]: > 100000 nM

CCC(C)OC(=O)C1=C(C)NC2=C(C(=O)CC(c3ccc(Cl)cc3)C2)C1c1cccc(O)c1 (configuration not stated)
EC50 (Plasmodium falciparum [1]): 1020 nM | EC50 (Plasmodium falciparum [2]): 147 nM | CC50 [3]: 39600 nM

Fc1ccc(-c2c[n+](Cc3ccc(Cl)cc3)c3n2CCC3)cc1
EC50 (Plasmodium falciparum [1]): 1140 nM | EC50 (Plasmodium falciparum [2]): 370 nM | CC50 [3]: > 100000 nM

CCCCC(=O)Oc1ccccc1-c1nc2ccccn2c1NC(C)(C)CC(C)(C)C
EC50 (Plasmodium falciparum [1]): 296 nM | EC50 (Plasmodium falciparum [2]): < 7.1 nM | CC50 [3]: 1920 nM

Cn1c(=O)n(Cc2ccccc2)c(=O)c2c1nc(SCC(=O)Nc1ccccc1)n2Cc1ccccc1
EC50 (Plasmodium falciparum [1]): 1850 nM | EC50 (Plasmodium falciparum [2]): 362 nM | CC50 [3]: > 100000 nM

CCOC(=O)c1nnn(-c2nonc2N)c1-c1ccc(C)cc1
EC50 (Plasmodium falciparum [1]): 304 nM | EC50 (Plasmodium falciparum [2]): 367 nM | CC50 [3]: > 100000 nM

CCc1cc(=O)n(C)c(SC(CC)C(=O)Nc2ccc(F)cc2)n1 (configuration not stated)
EC50 (Plasmodium falciparum [1]): 484 nM | EC50 (Plasmodium falciparum [2]): 383 nM | CC50 [3]: > 100000 nM

Cc1ccnc(NC(c2ccncc2)c2ccc3cccnc3c2O)c1 (configuration not stated)
EC50 (Plasmodium falciparum [1]): 1000 nM | EC50 (Plasmodium falciparum [2]): 357 nM | CC50 [3]: > 100000 nM

COc1cc(C(=O)ON=C(N)Cc2cccc3ccccc23)cc(OC)c1OC
EC50 (Plasmodium falciparum [1]): 280 nM | EC50 (Plasmodium falciparum [2]): 171 nM | CC50 [3]: 48100 nM

Cc1ccccc1N=Nc1ccc(NC(=O)c2ccco2)c(C)c1
EC50 (Plasmodium falciparum [1]): 402 nM | EC50 (Plasmodium falciparum [2]): 272 nM | CC50 [3]: 72200 nM

COc1cc(C=CC(=O)Nc2c3c(nn2-c2ccc(F)cc2)CSC3)cc(OC)c1OC
EC50 (Plasmodium falciparum [1]): 918 nM | EC50 (Plasmodium falciparum [2]): 381 nM | CC50 [3]: > 100000 nM

CCOc1cccc(Nc2c3c(nc4ncnn24)CCC3)c1
EC50 (Plasmodium falciparum [1]): 597 nM | EC50 (Plasmodium falciparum [2]): 374 nM | CC50 [3]: > 100000 nM

NC(=S)NN=CC(=NNC(N)=S)c1ccccc1
EC50 (Plasmodium falciparum [1]): 48.1 nM | EC50 (Plasmodium falciparum [2]): 37.6 nM | CC50 [3]: > 10000 nM

Cc1cc(C)c2c(c1)-c1c(ssc1=S)C(C)(C)N2C(=O)c1ccccc1
EC50 (Plasmodium falciparum [1]): 523 nM | EC50 (Plasmodium falciparum [2]): 370 nM | CC50 [3]: > 100000 nM

COc1cccc(C2Sc3ccccc3NC3=C2C(=O)c2ccccc23)c1 (configuration not stated)
EC50 (Plasmodium falciparum [1]): 577 nM | EC50 (Plasmodium falciparum [2]): 362 nM | CC50 [3]: > 100000 nM

CCCCNc1c2c(c(C#N)c3nc4ccccc4n13)CCC2
EC50 (Plasmodium falciparum [1]): 113 nM | EC50 (Plasmodium falciparum [2]): 367 nM | CC50 [3]: > 100000 nM

CCSCCOC(=O)C1=C(C)NC2=C(C(=O)CCC2)C1c1ccc(OC)c(Br)c1 (configuration not stated)
EC50 (Plasmodium falciparum [1]): 371 nM | EC50 (Plasmodium falciparum [2]): 360 nM | CC50 [3]: > 100000 nM

Cc1c2ccccc2cc(Cc2ccccc2)[n+]1C
EC50 (Plasmodium falciparum [1]): 488 nM | EC50 (Plasmodium falciparum [2]): 369 nM | CC50 [3]: > 100000 nM

Cc1ccccc1Oc1cc(NC(=O)c2cc3n(n2)C(C(F)(F)F)CC(c2ccccc2)N3)cc(Oc2ccccc2C)c1 (configuration not stated)
EC50 (Plasmodium falciparum [1]): 359 nM | EC50 (Plasmodium falciparum [2]): 380 nM | CC50 [3]: > 100000 nM

O=C(NN=Cc1c(O)ccc2ccccc12)c1cccnc1
EC50 (Plasmodium falciparum [1]): 875 nM | EC50 (Plasmodium falciparum [2]): 373 nM | CC50 [3]: > 100000 nM

Cc1cc(C(=O)Nc2cnn(Cc3ccc(Cl)cc3Cl)c2)no1
EC50 (Plasmodium falciparum [1]): 620 nM | EC50 (Plasmodium falciparum [2]): 371 nM | CC50 [3]: > 100000 nM

CCCCN(C(=O)CCC(=O)Nc1cc(C)on1)C(C(=O)NC1CCCC1)c1ccc(C)o1 (configuration not stated)
EC50 (Plasmodium falciparum [1]): 22.2 nM | EC50 (Plasmodium falciparum [2]): 36.9 nM | CC50 [3]: > 10000 nM

C(=C1\C(c2ccccc2)=Nc2ccccc21)/c1c(-c2ccccc2)[nH]c2ccccc12
EC50 (Plasmodium falciparum [1]): 210 nM | EC50 (Plasmodium falciparum [2]): 36.4 nM | CC50 [3]: > 10000 nM

COc1ccc(CNC(=O)C2CNCC2c2ccc(C(F)(F)F)cc2)cc1 (configuration not stated)
EC50 (Plasmodium falciparum [1]): 165 nM | EC50 (Plasmodium falciparum [2]): 85.7 nM | CC50 [3]: 24100 nM

CN1CCc2c(sc3nc(SCc4ccc(Cl)cc4)n(-c4cccc(Cl)c4)c(=O)c23)C1
EC50 (Plasmodium falciparum [1]): 1050 nM | EC50 (Plasmodium falciparum [2]): 363 nM | CC50 [3]: > 100000 nM

CC(C)(C)c1csc(NC(=O)c2ccc(S(=O)(=O)N3CCCCC3)cc2)n1
EC50 (Plasmodium falciparum [1]): > 12500 nM | EC50 (Plasmodium falciparum [2]): 175 nM | CC50 [3]: 49100 nM

COc1cc(C2c3[nH]c4ccccc4c3C[C@H]3C(=O)N(CCc4ccccc4)CC(=O)N23)cc(OC)c1OC (some centres not stated)
EC50 (Plasmodium falciparum [1]): 611 nM | EC50 (Plasmodium falciparum [2]): 374 nM | CC50 [3]: > 100000 nM

Oc1c(CN2CCN(Cc3ccc4cccnc4c3O)CC2)ccc2cccnc12
EC50 (Plasmodium falciparum [1]): 561 nM | EC50 (Plasmodium falciparum [2]): 318 nM | CC50 [3]: > 89300 nM

CCC1(C)CC(CCNCc2ccccc2O)(c2ccc(OC)cc2)CCO1 (configuration not stated)
EC50 (Plasmodium falciparum [1]): 455 nM | EC50 (Plasmodium falciparum [2]): 76.5 nM | CC50 [3]: 21400 nM

CSc1ccccc1CN1CCc2nc(N3CCCCC3)sc2C1
EC50 (Plasmodium falciparum [1]): 369 nM | EC50 (Plasmodium falciparum [2]): 38.1 nM | CC50 [3]: > 10000 nM
